Laboratory results as given in US20260373174A1, “THYROID BETA-AGONIST DOSING REGIMENS FOR THE TREATMENT OF X-ALD” (Viking Therapeutics, Inc., priority 2022, published 2026).

Experiment: previous phase 1 study, single and multiple dose cohorts
Format: in vivo, human
Conditions: doses used in this study (20, 40, 60, 80 mg QD, oral); preliminary results from 6 multiple dose cohorts (up to 100 mg) and 7 single dose cohorts (up to 125 mg)

Compound: Cc1cc(OCP(=O)(O)O)cc(C)c1Cc1ccc(O)c(Cc2ccccc2)c1 [Compound 1]
- lipid plasma levels: lowering of lipid plasma levels
- safety: without safety issues
